Some test systems named below: A498 renal; BT-549 breast; MDA-MB-231 breast; NCI/ADR-RES ovarian; OVCAR-5 ovarian; SK-MEL-2 melanoma; SNB-75 CNS; T-47D breast; MCF7 breast; PC-3 prostate.
Holding throughout (assay): NCI anticancer screen, dose series, 48 h

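96-well plates; 48 h exposure; 5 concentrations. Endpoints by linear interpolation between flanking doses. Not reached: highest tested concentration assigned. GI50 marks 50% less growth. TGI: total growth inhibition.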

For `O=C1c2cc3c(cc2-c2c1c1cc(Cl)c(Cl)cc1c(=O)n2C[C@H](O)CO)OCO3`, the GI50 with A498 renal is under 0.01 µM; with BT-549 breast, under 0.01 µM; in the test with MDA-MB-231 breast it was 79.6 nM; in the test on NCI/ADR-RES ovarian, under 0.01 µM; with OVCAR-5 ovarian it was 0.0184 µM; with SK-MEL-2 melanoma, 0.0488 µM. In addition, the GI50 in the test on SNB-75 CNS and in the test with T-47D breast was under 0.01 µM in each case. The TGI was 0.032 µM in the test with A498 renal; 0.455 µM in the test with BT-549 breast; 1.66 µM in the test on MDA-MB-231 breast; 0.0184 µM in the test with NCI/ADR-RES ovarian; 0.955 µM in the test with OVCAR-5 ovarian; 0.374 µM in the test with SK-MEL-2 melanoma. Besides, the TGI is 0.0786 µM with SNB-75 CNS and 0.0334 µM in the test with T-47D breast.

With `C=CCN1CCC23c4c5ccc(O)c4OC2C(=NN=C2CCC4(O)C6Cc7ccc(O)c8c7C4(CCN6CC=C)C2O8)CCC3(O)C1C5` (stereo not given), the TGI was 41.5 µM in the test on A498 renal, over 100 µM in the test on OVCAR-5 ovarian, 33.8 µM with SK-MEL-2 melanoma and 34.2 µM in the test with SNB-75 CNS.

With `CCOC(=O)/C=C/c1ccc(C#Cc2ccccc2)cc1`, the GI50 with A498 renal was 44.9 µM; in the test on MCF7 breast, over 100 µM; in the test with MDA-MB-231 breast, over 100000 nM; with NCI/ADR-RES ovarian, over 100 µM; in the test on OVCAR-5 ovarian, over 100 µM; with PC-3 prostate, over 100 µM. For the same compound, the GI50 was over 100 µM in the test on SK-MEL-2 melanoma, 31.8 µM with SNB-75 CNS and 86.8 µM in the test with T-47D breast. In addition, the TGI with A498 renal, in the test on MCF7 breast, in the test with MDA-MB-231 breast, in the test on NCI/ADR-RES ovarian, in the test with OVCAR-5 ovarian and in the test with PC-3 prostate was over 100 µM in each case. Further, the values for the TGI with SK-MEL-2 melanoma, in the test on SNB-75 CNS and in the test with T-47D breast were over 100 µM, 97.1 µM and over 100 µM, respectively.

As to `CC(C)(C)[Si](C)(C)OC1C(=O)C[C@H]2CCCC[C@@H]12` (stereo not given in full), the TGI in the test on A498 renal, in the test on OVCAR-5 ovarian, in the test on SK-MEL-2 melanoma and in the test with SNB-75 CNS was over 100 µM each time.

For the compound `Cn1c2ccccc2c2ncc3[nH]c4ccccc4c3c21`, the TGI in the test with A498 renal is 36.7 µM; in the test with OVCAR-5 ovarian it was 47.8 µM; in the test with SK-MEL-2 melanoma it was over 100 µM; in the test on SNB-75 CNS it was 35.6 µM.

Take `C[C@]12CCC(=O)C=C1CC[C@@H]1C2CC[C@]2(C)Nc3[nH]ncc3CC12` (stereo not given in full): the TGI with A498 renal, in the test with OVCAR-5 ovarian, in the test on SK-MEL-2 melanoma and with SNB-75 CNS was over 100 µM each time.

As to `Clc1nc(Cl)nc(Nc2cccc3ccccc23)n1`, the GI50 in the test with A498 renal was over 100 µM; with MCF7 breast it was 36.3 µM; with MDA-MB-231 breast, 63900 nM; in the test on NCI/ADR-RES ovarian, over 100 µM; in the test with OVCAR-5 ovarian, over 100 µM; with PC-3 prostate, 84.2 µM. Moreover, the values for the GI50 in the test on SK-MEL-2 melanoma, in the test with SNB-75 CNS and with T-47D breast were 80.7 µM, over 100 µM and 98.5 µM, respectively. Further, the TGI in the test with A498 renal, in the test on MCF7 breast, in the test on MDA-MB-231 breast, in the test with NCI/ADR-RES ovarian, with OVCAR-5 ovarian and with PC-3 prostate was over 100 µM in each case. Besides, the TGI in the test with SK-MEL-2 melanoma, with SNB-75 CNS and in the test with T-47D breast was over 100 µM in each case.

For the compound `CCOC(=O)c1ccc(N=Nc2cc(C(=O)OCC)ccc2O)cc1`, the TGI with A498 renal is over 100 µM.

For the compound `COC(=O)c1s/c(=N\C(=S)N(C)C)n(-c2ccc(Cl)cc2)c1C(=O)OC`, the TGI with A498 renal is over 100 µM; in the test with OVCAR-5 ovarian, over 100 µM; in the test on SK-MEL-2 melanoma it was over 100 µM; with SNB-75 CNS it was over 10 µM.

On to `O=[N+]([O-])c1ccc(CI)cc1`, for which the GI50 with A498 renal was 2.29 µM; in the test on BT-549 breast, 3.54 µM; with MCF7 breast, 3.08 µM; in the test with MDA-MB-231 breast, 1230 nM; with NCI/ADR-RES ovarian, 3.15 µM; in the test on OVCAR-5 ovarian, 6.2 µM. Besides, the GI50 in the test on SNB-75 CNS is 3.27 µM; in the test on T-47D breast it was 2.21 µM. The TGI came out at 9.56 µM in the test with A498 renal; 10.8 µM in the test on BT-549 breast; 17.2 µM in the test with MCF7 breast; 4.08 µM in the test on MDA-MB-231 breast; 11.2 µM with NCI/ADR-RES ovarian; 20.4 µM in the test on OVCAR-5 ovarian. For the same compound, the TGI in the test with SNB-75 CNS amounted to 15.5 µM; in the test on T-47D breast, 5.17 µM.

As to `CN(C)CCC(=O)C(=Cc1ccc(O)cc1)C(=O)CCN(C)C`, the GI50 in the test on BT-549 breast was over 100 µM; in the test on MCF7 breast it was 30.9 µM; in the test on MDA-MB-231 breast it was over 100000 nM; in the test with NCI/ADR-RES ovarian, over 100 µM; in the test on OVCAR-5 ovarian it was over 100 µM; with SK-MEL-2 melanoma, over 100 µM. Also, the values for the GI50 in the test with SNB-75 CNS and in the test on T-47D breast were over 100 µM and 47.7 µM, respectively. The TGI in the test on BT-549 breast, in the test with MCF7 breast, in the test with MDA-MB-231 breast, in the test with NCI/ADR-RES ovarian, in the test on OVCAR-5 ovarian and in the test on SK-MEL-2 melanoma was over 100 µM each time. Moreover, the TGI with SNB-75 CNS and in the test on T-47D breast was over 100 µM in each case.

In the case of `O=C1CCC(=O)c2c1c(O)c1ccncc1c2O`, the TGI with OVCAR-5 ovarian stood at 38.2 µM; in the test on SK-MEL-2 melanoma, 26.4 µM; in the test on SNB-75 CNS it was 34.7 µM.

Take `CCCCCCCN=C(N)c1ccc(N2CCN(c3ccc(C(N)=NCCCCCCC)cc3)CC2)cc1`: the GI50 in the test on A498 renal was 3.32 µM; with MCF7 breast it was 0.208 µM; in the test with MDA-MB-231 breast, 165 nM; in the test with NCI/ADR-RES ovarian it was 1.38 µM; in the test with OVCAR-5 ovarian it was 0.849 µM; with PC-3 prostate, 0.268 µM. Moreover, the GI50 with SK-MEL-2 melanoma was 1.99 µM; in the test on SNB-75 CNS, 2.75 µM. The TGI with A498 renal is over 100 µM; in the test on MDA-MB-231 breast it was 0.703 µM; in the test with NCI/ADR-RES ovarian, over 57.7 µM; in the test on OVCAR-5 ovarian, 29.3 µM; with PC-3 prostate, over 20 µM; in the test with SK-MEL-2 melanoma, over 100 µM. The figures for the TGI in the test with SNB-75 CNS and in the test on T-47D breast were 7.67 µM and over 93.4 µM, respectively.

On to `COC12OCCN(C)C1=CC(=O)C1=NNC(C)C12` (stereo not given), for which the TGI in the test on A498 renal and in the test on SNB-75 CNS was over 100 µM each time.

Turning to `O=C(O)c1ccc(C(=O)O)c2c(C(=O)O)ccc(C(=O)O)c12`, the TGI with A498 renal, with MCF7 breast, in the test on MDA-MB-231 breast, in the test with NCI/ADR-RES ovarian, with OVCAR-5 ovarian and in the test on PC-3 prostate was over 100 µM throughout. The TGI with SK-MEL-2 melanoma, in the test on SNB-75 CNS and with T-47D breast was over 100 µM in each case.
